The values that follow come from patent US20040202638A1, “Substance capable of potentiating laminin 5 productivity in epidermal cells and utilization thereof” (priority 2001, published 2004).

The subject of this assay is laminin 5. The assay is described as follows: Laminin 5 productivity evaluation test (keratinocyte culture, sandwich ELISA). Type of assay: cell-based, human. The note with it: for laminin 5 productivity potentiating action: result in words. The method, then: (1) Culture of Keratinocytes
Keratinocytes were isolated from the human preputium and cultured in an epidermal cell growth medium (KGM) having a low calcium concentration. To this culture medium were added bovine pituitary extract and EGF. After cultivation in KGM up to the fourth generation, the cells were treated with trypsin and EDTA to suspend adherent cells. Then, the culture was filtered to remove cell aggregates and thereby to obtain a homogeneous cell suspension. The cells were collected by centrifugation and resuspended in DMEM-F12 (2:I)-0.1% BSA so as to give a cell density of8×10^4 per ml. Each 0.5 ml of this cell suspension was added to 0.5 ml of the same medium containing a twofold concentration of each test sample. Using a 24-well plate, incubation was carried out at 37° C. for 24 hours. After completion of the incubation, the culture supernatant was transferred to an Eppendorf tube and centrifuged at 10,000 rpm for 5 minutes. The supernatant was transferred to a new tube and stored at −20° C. till the day for the determination of laminin 5. In order to solubilize laminin 5 in the cells and that bound to the culture plastics, a tris-HCl buffer (pH 7.4) containing various surfactants was added to each well and allowed to stand at −20° C. overnight. On the following day, the mixture was ultrasonicated and frozen again. On the following day, the mixture was thawed again and centrifuged at 10,000 rpm for 5 minutes. The supernatant was transferred to a tube and stored at −20° C. till the day for the determination of laminin 5.
(2) Determination of Laminin 5 by the Sandwich ELISA Method
Laminin 5 present in the culture supernatant and the cell layer was determined by the sandwich ELISA method. A monoclonal antibody (BM165) to the laminin α3 chain of laminin 5 was attached to a solid layer of a 96-well ELISA plate. In order to determine laminin 5 in sandwiched manner, a monoclonal antibody (6F12) to the laminin β3 chain was previously biotinized (b-6F12) and used as the other antibody. […] A sample was added to each of the wells in which a 3% gelatin-phosphate buffer solution containing b-6F12 had previously been placed. The final dilution ratio of the sample in the wells was ¼ for the culture medium and 1/10 for the cell layer. After the antigen-antibody reaction was carried out at 37° C. for 2 hours, the plate was washed, and an avidin HRP (horseradish peroxidase) solution was added thereto and reacted for a period of 30 minutes to 1 hour. After washing, a solution of ABTS serving as a substrate for HRP was added thereto and the absorbance at 405 nm was measured with an ELISA plate reader. A calibration curve was constructed over a range of 0 to 40 ng/ml.
The sum of the laminin 5 liberated into the culture medium and that remaining in the cell layer was calculated. The yield of laminin 5 was expressed by the relative value to that of the sample to which none of the plant extracts was added (control).
(In general: In an ELISA, binding on a coated surface is turned into a signal by an enzyme label.)

[1] abbreviates: Table 3 (comparative example), concentration 1 μM.
Where [2] appears, read: Table 3 (comparative example), concentration 10 μM.
[3] abbreviates: Table 3 (comparative example), concentration 100 μM.

With `C[C@H]1[C@H](C)CC[C@]2(C)CC[C@]3(C)C4=C(CC[C@@]3(C)[C@H]12)[C@@]1(C)CC[C@H](O)C(C)(C)C1CC4` (stereo partly drawn) [Isobauerenol, isobauerenol], the “laminin 5 productivity potentiating action” value was “exhibiting laminin 5 productivity potentiating action”. Where the note is “Table 2, concentration 1 μM”, the “Laminin 5 yield (%) Relative to the Control” value was found to be 132%. Also, the “Laminin 5 yield (%) Relative to the Control” value (Table 2, concentration 10 μM) is on record as 137%.
As to `O=c1c(-c2ccc(O)cc2)coc2cc(O[C@@H]3O[C@H](CO)[C@@H](O)[C@H](O)[C@H]3O)ccc12` [daidzin, daidzein-7-glucoside], the “laminin 5 productivity potentiating action” value is “little or no laminin 5 productivity potentiating action”.
Consider `O=c1c(-c2ccc(O)cc2)coc2c([C@@H]3O[C@H](CO)[C@@H](O)[C@H](O)[C@H]3O)c(O)ccc12` [Puerarin, daidzein-8-glucoside], for which the “laminin 5 productivity potentiating action” value is “little or no laminin 5 productivity potentiating action”.
Regarding `O=c1c(-c2ccc(O)c(O)c2)coc2c([C@@H]3O[C@H](CO)[C@@H](O)[C@H](O)[C@H]3O)c(O)ccc12` [Glucoside, 8-β-D-glucopyranosyl-7-hydroxy-3-(3′,4′-dihydroxyphenyl)-4H-1-benzopyran-4-one], the “Laminin 5 yield (%) Relative to the Control” value is, setting by setting: under setting [1], 93%; under setting [2], 95%; under setting [3], 99%.
As for `C=C(C)[C@@H]1CC[C@]2(C)CC[C@]3(C)[C@H](CC[C@@H]4[C@@]5(C)CC[C@H](O)C(C)(C)[C@@H]5CC[C@]43C)[C@@H]12` [Lupeol, lupeol], the “laminin 5 productivity potentiating action” value was “exhibiting laminin 5 productivity potentiating action”. Further, the “Laminin 5 yield (%) Relative to the Control” value (Table 2, concentration 0.1 μM) was 122%. Also, the “Laminin 5 yield (%) Relative to the Control” value (Table 2, concentration 1 μM) is given as 154%.
With `O=c1c(-c2ccc(O)cc2)coc2cc(O)ccc12` [Daidzein, 4′,7-dihydroxyisoflavone], the “laminin 5 productivity potentiating action” value is on record as “little or no laminin 5 productivity potentiating action”. Besides, under setting [1], the “Laminin 5 yield (%) Relative to the Control” value was found to be 93%. Besides, under setting [2], the “Laminin 5 yield (%) Relative to the Control” value came out at 99%. Further, the “Laminin 5 yield (%) Relative to the Control” value under setting [3] is 74%.
